Reference: the supplement of paper PMC11451515

System: P12-Ichikawa
Test: cell viability relative to DMSO control; higher = less cytotoxic
Details: 48 h
Outline: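 Before seeding, each leukemia line was adapted for at least four passages in each medium. NOMO1 or SEM cells (500 cells/well) and P12-Ichikawa cells (1000 cells/well) went into 1536-well plates at 5 μl, then received library compounds in DMSO by pin dosing across 11 threefold concentrations, 47 μM to 0.79 nM. Readout was CellTiter-Glo One luminescence after 48 h at 37°C, and viability is given as a per-plate percentage of DMSO wells, with cell-free wells as background.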

[1] = HPLM + 10% dialyzed FBS, 0.000781 µM
[2] = HPLM + 10% dialyzed FBS, 0.00234 µM
[3] = HPLM + 10% dialyzed FBS, 0.00702 µM
[4] = HPLM + 10% dialyzed FBS, 0.0211 µM
[5] = HPLM + 10% dialyzed FBS, 0.0632 µM
[6] = HPLM + 10% dialyzed FBS, 0.19 µM
[7] = HPLM + 10% dialyzed FBS, 0.569 µM
[8] = HPLM + 10% dialyzed FBS, 1.71 µM
[9] = HPLM + 10% dialyzed FBS, 5.12 µM
[10] = HPLM + 10% dialyzed FBS, 15.4 µM
[11] = HPLM + 10% dialyzed FBS, 46.1 µM
[12] = RPMI 5 mM glucose + 10% FBS, 0.000781 µM
[13] = RPMI 5 mM glucose + 10% FBS, 0.00234 µM
[14] = RPMI 5 mM glucose + 10% FBS, 0.00702 µM
[15] = RPMI 5 mM glucose + 10% FBS, 0.0211 µM
[16] = RPMI 5 mM glucose + 10% FBS, 0.0632 µM
[17] = RPMI 5 mM glucose + 10% FBS, 0.19 µM
[18] = RPMI 5 mM glucose + 10% FBS, 0.569 µM
[19] = RPMI 5 mM glucose + 10% FBS, 1.71 µM
[20] = RPMI 5 mM glucose + 10% FBS, 5.12 µM
[21] = RPMI 5 mM glucose + 10% FBS, 15.4 µM
[22] = RPMI 5 mM glucose + 10% FBS, 46.1 µM
[23] = RPMI 5 mM glucose + 10% dialyzed FBS, 0.000781 µM
[24] = RPMI 5 mM glucose + 10% dialyzed FBS, 0.00234 µM
[25] = RPMI 5 mM glucose + 10% dialyzed FBS, 0.00702 µM
[26] = RPMI 5 mM glucose + 10% dialyzed FBS, 0.0211 µM
[27] = RPMI 5 mM glucose + 10% dialyzed FBS, 0.0632 µM
[28] = RPMI 5 mM glucose + 10% dialyzed FBS, 0.19 µM
[29] = RPMI 5 mM glucose + 10% dialyzed FBS, 0.569 µM
[30] = RPMI 5 mM glucose + 10% dialyzed FBS, 1.71 µM
[31] = RPMI 5 mM glucose + 10% dialyzed FBS, 5.12 µM
[32] = RPMI 5 mM glucose + 10% dialyzed FBS, 15.4 µM
[33] = RPMI 5 mM glucose + 10% dialyzed FBS, 46.1 µM

SMILES | cell viability [1] [%] | cell viability [2] [%] | cell viability [3] [%] | cell viability [4] [%] | cell viability [5] [%] | cell viability [6] [%] | cell viability [7] [%] | cell viability [8] [%] | cell viability [9] [%] | cell viability [10] [%] | cell viability [11] [%] | cell viability [12] [%] | cell viability [13] [%] | cell viability [14] [%] | cell viability [15] [%] | cell viability [16] [%] | cell viability [17] [%] | cell viability [18] [%] | cell viability [19] [%] | cell viability [20] [%] | cell viability [21] [%] | cell viability [22] [%] | cell viability [23] [%] | cell viability [24] [%] | cell viability [25] [%] | cell viability [26] [%] | cell viability [27] [%] | cell viability [28] [%] | cell viability [29] [%] | cell viability [30] [%] | cell viability [31] [%] | cell viability [32] [%] | cell viability [33] [%]
Cn1cc(-c2ccc3ncc(Cc4ccc5ncccc5c4)n3n2)cn1 | 96.8 | 105 | 107 | 107 | 105 | 104 | 113 | 107 | 105 | 107 | 100 | 102 | 108 | 100 | 103 | 102 | 109 | 111 | 107 | 106 | 104 | 102 | 103 | 119 | 112 | 109 | 110 | 104 | 115 | 114 | 102 | 98.7 | 110
N#Cc1c(C2CCNCC2)cc(-c2c(O)cccc2OCC2CC2)nc1N | 113 | 113 | 112 | 110 | 108 | 108 | 106 | 107 | 101 | 106 | 92 | 116 | 125 | 123 | 117 | 109 | 97.2 | 108 | 105 | 105 | 106 | 91.3 | 114 | 116 | 119 | 126 | 105 | 114 | 111 | 107 | 107 | 99.7 | 85.9
CC(C)[C@@H](N(CCCN)C(=O)C1=CC=C(C)C=C1)C/2=C(\CC3=CC=CC=C3)C(=O)C4=C(O2)C=C(Cl)C=C4 | 37.7 | 12.6 | 11.5 | 14.2 | 9.91 | 11.7 | 12.2 | 11 | 10.3 | 11.8 | 12.8 | 18.4 | 15.8 | 15 | 18.5 | 18 | 17.6 | 14 | 17.7 | 15.8 | 15.7 | 9.01 | 70.7 | 20.4 | 20.7 | 21.9 | 22.4 | 22.5 | 18.6 | 20.9 | 21.2 | 19.8 | 16.2
CC1=CC2=C(O1)C(=C3OC(=O)\C=C(C)/C3=C2)C | 105 | 116 | 113 | 109 | 113 | 111 | 117 | 111 | 108 | 102 | 99.6 | 89.6 | 107 | 105 | 106 | 103 | 107 | 118 | 106 | 107 | 102 | 96.8 | 102 | 112 | 110 | 111 | 113 | 115 | 110 | 115 | 104 | 105 | 86.8
COc1ccc(CCC(=O)Nc2nc3ccc(Cl)cc3s2)cc1OC | 106 | 106 | 106 | 112 | 111 | 107 | 110 | 102 | 104 | 99.3 | 98.6 | 109 | 118 | 94.9 | 114 | 111 | 110 | 110 | 108 | 109 | 107 | 92.1 | 113 | 94.1 | 105 | 113 | 110 | 105 | 99.7 | 105 | 103 | 91.9 | 92.6
COc1ccc([C@@H]2CNC(=O)C2)cc1OC1CCCC1 | 103 | 107 | 104 | 110 | 109 | 111 | 113 | 109 | 117 | 114 | 109 | 101 | 104 | 110 | 99.8 | 97.1 | 113 | 117 | 105 | 117 | 118 | 108 | 99.1 | 106 | 113 | 107 | 118 | 110 | 114 | 103 | 113 | 111 | 118
CCCn1c(=O)c2[nH]c(C34CC5CC3C[C@@H](C5)C4)nc2n(CCC)c1=O | 111 | 107 | 100 | 97.8 | 112 | 110 | 107 | 99.5 | 93.6 | 96.6 | 96.1 | 102 | 113 | 112 | 110 | 136 | 106 | 64.5 | 80.3 | 85.5 | 86.1 | 90 | 94.2 | 101 | 92.4 | 96.9 | 99.9 | 100 | 94.2 | 98.7 | 98 | 93.2 | 88.6
COc1cc2c(NC3CCN(C(C)C)CC3)nc(C3CCCCC3)nc2cc1OCCCN1CCCC1 | 107 | 110 | 115 | 121 | 121 | 121 | 120 | 123 | 119 | 105 | 4.7 | 112 | 127 | 113 | 127 | 121 | 116 | 120 | 131 | 112 | 96.9 | 3.81 | 106 | 117 | 114 | 121 | 123 | 129 | 122 | 133 | 110 | 91.5 | 4.78
CC1=C2N=C([NH]C2=CC(=C1)N3CCOCC3)\C4=C(NC[C@@H](O)C5=CC=CC(=C5)Cl)\C=C/NC4=O | 102 | 104 | 103 | 109 | 113 | 110 | 112 | 115 | 106 | 100 | 90.8 | 104 | 108 | 106 | 109 | 115 | 114 | 119 | 117 | 117 | 106 | 85.6 | 101 | 117 | 120 | 118 | 116 | 119 | 120 | 128 | 110 | 105 | 85.7
Cn1c(=O)c2c(ncn2CC(O)CO)n(C)c1=O (stereo not given) | 113 | 112 | 110 | 111 | 114 | 116 | 115 | 111 | 108 | 117 | 124 | 109 | 104 | 118 | 119 | 124 | 122 | 127 | 117 | 128 | 134 | 128 | 112 | 114 | 114 | 116 | 114 | 115 | 124 | 117 | 125 | 126 | 119
COc1cc(N2CCC(N3CCN(C)CC3)CC2)ccc1Nc1ncnc(Nc2ccccc2[S+](=O)([O-])C(C)C)n1 | 113 | 117 | 120 | 125 | 97.9 | 128 | 122 | 117 | 115 | 90.1 | 28.4 | 97.4 | 90.7 | 100 | 110 | 74.5 | 112 | 106 | 103 | 103 | 91.2 | 44.9 | 112 | 97 | 118 | 119 | 84 | 125 | 120 | 119 | 114 | 83.4 | 47.3
CC(C)(O)CNc1nc(Nc2ccnc(C(F)(F)F)c2)nc(-c2cccc(C(F)(F)F)n2)n1 | 101 | 103 | 107 | 107 | 106 | 102 | 99.4 | 104 | 8.99 | 10.4 | 15.2 | 103 | 115 | 100 | 114 | 104 | 118 | 111 | 107 | 10.2 | 10.7 | 13.2 | 99.6 | 106 | 115 | 117 | 123 | 109 | 117 | 118 | 17.5 | 21.5 | 26.8
COc1ccc(Cn2ccc3ccc(C(=O)NO)cc32)cc1 | 116 | 121 | 119 | 87.4 | 128 | 123 | 120 | 119 | 113 | 90.3 | 44 | 108 | 114 | 120 | 65.3 | 134 | 125 | 130 | 120 | 120 | 83.5 | 52.3 | 116 | 116 | 116 | 79.9 | 126 | 126 | 129 | 119 | 114 | 87 | 55.6
CCC(=O)O[C@@]1([C@H](C)C[C@H]2[C@@H]3C[C@H](F)\C4=C\C(=O)\C=C/[C@]4(C)[C@@]3(F)[C@@H](O)C[C@]12C)C(=O)SCF | 101 | 112 | 88 | 75.6 | 69.2 | 64.8 | 70.6 | 71.5 | 65.9 | 69.8 | 66.2 | 120 | 119 | 86.3 | 76.5 | 74.7 | 68.8 | 68.2 | 58.9 | 59.2 | 55.1 | 59.9 | 95.9 | 100 | 71.3 | 55.5 | 54.4 | 55.1 | 53.6 | 49.6 | 51.1 | 48.6 | 46.7
CCc1cc(/C(C)=N/OCc2ccc(C3CCCCC3)c(C(F)(F)F)c2)ccc1CN1CC(C(=O)O)C1 | 111 | 110 | 112 | 119 | 120 | 114 | 121 | 108 | 105 | 30.3 | 18.9 | 109 | 99 | 105 | 108 | 110 | 106 | 108 | 107 | 94.4 | 22.5 | 18.7 | 111 | 111 | 116 | 109 | 109 | 116 | 114 | 106 | 100 | 20.7 | 18.6
